Experimental data from ChEMBL document CHEMBL1909046, “DrugMatrix in vitro pharmacology data”.

What was measured:
[1] = target: T1, Type-2 angiotensin II receptor (Homo sapiens, UniProt P50052); assay type: cell-based; settings: cho-k1
T1 sequence (P50052 whole entry): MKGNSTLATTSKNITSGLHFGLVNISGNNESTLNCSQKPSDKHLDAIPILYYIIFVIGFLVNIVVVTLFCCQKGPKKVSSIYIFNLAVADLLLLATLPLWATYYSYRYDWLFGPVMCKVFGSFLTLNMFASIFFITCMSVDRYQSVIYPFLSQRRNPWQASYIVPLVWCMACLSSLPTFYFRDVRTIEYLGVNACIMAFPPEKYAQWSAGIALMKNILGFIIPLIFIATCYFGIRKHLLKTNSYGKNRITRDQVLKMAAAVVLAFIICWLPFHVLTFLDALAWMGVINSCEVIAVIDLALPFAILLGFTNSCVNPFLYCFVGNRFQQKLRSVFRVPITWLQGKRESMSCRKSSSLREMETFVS

[2] = target: T2, Nitric oxide synthase, inducible (Mus musculus, UniProt P29477); design: species or system Escherichia coli;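 note: inhibition of iNOS enzyme activity measured with L-arginine as substrate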
T2 sequence (P29477 whole entry): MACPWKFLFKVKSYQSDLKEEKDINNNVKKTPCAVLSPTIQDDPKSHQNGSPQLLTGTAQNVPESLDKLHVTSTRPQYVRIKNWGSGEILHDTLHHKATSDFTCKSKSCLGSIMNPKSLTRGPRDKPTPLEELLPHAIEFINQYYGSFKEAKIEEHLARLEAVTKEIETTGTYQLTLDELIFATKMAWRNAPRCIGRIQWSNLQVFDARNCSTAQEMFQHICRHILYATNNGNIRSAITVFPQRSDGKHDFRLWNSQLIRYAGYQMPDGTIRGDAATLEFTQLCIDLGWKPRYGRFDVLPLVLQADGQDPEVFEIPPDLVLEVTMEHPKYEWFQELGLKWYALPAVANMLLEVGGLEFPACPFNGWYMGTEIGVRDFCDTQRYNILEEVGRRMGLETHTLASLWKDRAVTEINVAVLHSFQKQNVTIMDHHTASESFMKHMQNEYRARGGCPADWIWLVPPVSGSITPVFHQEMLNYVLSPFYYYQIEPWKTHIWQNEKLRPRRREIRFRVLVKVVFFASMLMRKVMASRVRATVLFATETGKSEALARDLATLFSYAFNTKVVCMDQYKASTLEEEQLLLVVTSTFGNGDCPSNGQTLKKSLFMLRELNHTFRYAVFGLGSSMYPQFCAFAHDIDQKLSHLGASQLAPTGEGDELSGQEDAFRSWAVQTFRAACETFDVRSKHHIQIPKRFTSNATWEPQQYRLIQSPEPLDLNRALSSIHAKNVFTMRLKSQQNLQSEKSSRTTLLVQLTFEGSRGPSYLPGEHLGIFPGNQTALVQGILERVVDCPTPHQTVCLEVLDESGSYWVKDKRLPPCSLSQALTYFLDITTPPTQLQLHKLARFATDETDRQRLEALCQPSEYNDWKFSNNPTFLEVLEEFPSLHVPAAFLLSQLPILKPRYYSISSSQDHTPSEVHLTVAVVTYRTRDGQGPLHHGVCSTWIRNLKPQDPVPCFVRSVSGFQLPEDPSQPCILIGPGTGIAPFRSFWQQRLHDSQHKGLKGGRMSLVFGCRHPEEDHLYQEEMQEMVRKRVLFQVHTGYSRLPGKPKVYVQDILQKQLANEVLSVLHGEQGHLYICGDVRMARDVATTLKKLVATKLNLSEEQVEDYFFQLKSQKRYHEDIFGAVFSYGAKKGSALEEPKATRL

Cytochrome P450 1A2 = target: T3, Cytochrome P450 1A2 (Homo sapiens, UniProt P05177); settings: bti-tn-5b1-4
T3 sequence (P05177 whole entry): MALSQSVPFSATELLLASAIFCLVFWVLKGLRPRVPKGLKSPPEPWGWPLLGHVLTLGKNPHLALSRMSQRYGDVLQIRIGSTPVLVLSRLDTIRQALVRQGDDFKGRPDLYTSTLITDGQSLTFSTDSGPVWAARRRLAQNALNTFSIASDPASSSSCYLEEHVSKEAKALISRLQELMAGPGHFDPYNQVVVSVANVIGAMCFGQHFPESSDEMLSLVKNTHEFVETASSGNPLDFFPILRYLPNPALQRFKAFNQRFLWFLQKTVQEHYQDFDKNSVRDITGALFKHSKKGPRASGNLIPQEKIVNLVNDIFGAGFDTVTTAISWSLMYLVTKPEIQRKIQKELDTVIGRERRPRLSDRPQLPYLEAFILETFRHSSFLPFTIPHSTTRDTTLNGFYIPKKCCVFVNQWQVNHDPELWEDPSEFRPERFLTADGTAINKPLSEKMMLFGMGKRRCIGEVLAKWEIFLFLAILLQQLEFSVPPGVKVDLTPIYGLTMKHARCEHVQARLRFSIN

Cytochrome P450 2C19 = Cytochrome P450 2C19 (Homo sapiens, UniProt P33261); settings: bti-tn-5b1-4
Cytochrome P450 2C9 = Cytochrome P450 2C9 (Homo sapiens, UniProt P11712); settings: bti-tn-5b1-4
Cytochrome P450 2D6 = Cytochrome P450 2D6 (Homo sapiens, UniProt P10635); settings: bti-tn-5b1-4
Estrogen receptor = target: T4, Estrogen receptor (Homo sapiens, UniProt P03372); settings: sf9
T4 sequence (P03372 whole entry): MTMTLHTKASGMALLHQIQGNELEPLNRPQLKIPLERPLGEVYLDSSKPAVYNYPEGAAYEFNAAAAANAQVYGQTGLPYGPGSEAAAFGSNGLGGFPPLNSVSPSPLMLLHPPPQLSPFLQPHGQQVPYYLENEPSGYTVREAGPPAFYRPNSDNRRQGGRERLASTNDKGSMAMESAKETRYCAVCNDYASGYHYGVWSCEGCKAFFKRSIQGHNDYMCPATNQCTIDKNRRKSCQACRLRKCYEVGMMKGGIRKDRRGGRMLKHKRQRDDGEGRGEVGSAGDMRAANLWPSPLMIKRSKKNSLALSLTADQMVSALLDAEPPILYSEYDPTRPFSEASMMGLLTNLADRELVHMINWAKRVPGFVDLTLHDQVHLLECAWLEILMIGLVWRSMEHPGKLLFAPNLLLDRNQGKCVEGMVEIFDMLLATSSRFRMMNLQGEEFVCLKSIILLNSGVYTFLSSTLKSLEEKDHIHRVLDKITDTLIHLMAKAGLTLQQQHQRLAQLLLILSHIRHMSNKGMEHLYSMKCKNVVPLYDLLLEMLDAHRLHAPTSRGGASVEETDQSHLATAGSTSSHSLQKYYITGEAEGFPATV
Note: in other assays of this panel Not Active means under 50% inhibition at 10 µM.

Cytochrome P450 2D6, sequence (P10635 whole entry): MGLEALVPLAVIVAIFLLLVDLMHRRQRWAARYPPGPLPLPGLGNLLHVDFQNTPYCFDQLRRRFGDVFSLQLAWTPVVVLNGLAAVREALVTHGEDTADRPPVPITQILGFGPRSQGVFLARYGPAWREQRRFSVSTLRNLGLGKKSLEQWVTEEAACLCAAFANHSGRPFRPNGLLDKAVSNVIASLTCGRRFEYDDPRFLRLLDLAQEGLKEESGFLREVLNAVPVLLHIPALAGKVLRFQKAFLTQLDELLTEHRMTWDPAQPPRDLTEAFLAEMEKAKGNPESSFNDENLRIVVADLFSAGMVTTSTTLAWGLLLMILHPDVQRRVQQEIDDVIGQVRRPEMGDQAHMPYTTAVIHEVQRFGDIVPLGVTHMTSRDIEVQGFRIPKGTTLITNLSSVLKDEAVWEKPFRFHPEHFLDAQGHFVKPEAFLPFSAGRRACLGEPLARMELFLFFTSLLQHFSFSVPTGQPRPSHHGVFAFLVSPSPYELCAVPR
Cytochrome P450 2C19, sequence (P33261 whole entry): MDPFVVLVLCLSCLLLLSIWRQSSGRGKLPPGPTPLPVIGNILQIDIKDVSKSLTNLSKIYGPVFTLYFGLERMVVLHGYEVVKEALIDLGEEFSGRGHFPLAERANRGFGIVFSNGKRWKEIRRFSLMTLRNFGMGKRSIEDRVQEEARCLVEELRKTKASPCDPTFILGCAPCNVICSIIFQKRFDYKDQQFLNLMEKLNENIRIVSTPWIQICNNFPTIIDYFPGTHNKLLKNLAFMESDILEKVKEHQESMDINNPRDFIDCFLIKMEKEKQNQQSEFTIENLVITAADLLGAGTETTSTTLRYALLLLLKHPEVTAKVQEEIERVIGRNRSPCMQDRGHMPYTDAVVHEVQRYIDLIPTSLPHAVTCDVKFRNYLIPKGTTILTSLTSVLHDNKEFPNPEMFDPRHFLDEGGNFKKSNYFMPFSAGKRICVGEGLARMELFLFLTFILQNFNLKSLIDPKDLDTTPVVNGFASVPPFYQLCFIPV
Cytochrome P450 2C9, sequence (P11712 whole entry): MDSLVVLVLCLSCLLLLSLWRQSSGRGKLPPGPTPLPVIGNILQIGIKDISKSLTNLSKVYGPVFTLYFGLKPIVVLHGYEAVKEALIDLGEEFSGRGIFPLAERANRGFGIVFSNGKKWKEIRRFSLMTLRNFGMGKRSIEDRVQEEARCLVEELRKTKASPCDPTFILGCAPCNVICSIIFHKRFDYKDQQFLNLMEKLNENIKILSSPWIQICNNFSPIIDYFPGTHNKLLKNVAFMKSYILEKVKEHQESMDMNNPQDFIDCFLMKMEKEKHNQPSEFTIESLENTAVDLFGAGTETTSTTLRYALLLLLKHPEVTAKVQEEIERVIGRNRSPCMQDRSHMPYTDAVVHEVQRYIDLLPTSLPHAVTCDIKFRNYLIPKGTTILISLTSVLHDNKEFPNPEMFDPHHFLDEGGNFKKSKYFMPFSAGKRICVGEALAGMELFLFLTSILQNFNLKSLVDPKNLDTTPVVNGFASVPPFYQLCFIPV

CC(C)[C@H](N)C(=O)OCCOCn1cnc2c(=O)nc(N)[nH]c21 [VALACYCLOVIR]
Not Active: IC50 [1] | IC50 [2] | IC50 (Cytochrome P450 1A2) | Ki (Cytochrome P450 1A2) | IC50 (Cytochrome P450 2C19) | Ki (Cytochrome P450 2C19) | IC50 (Cytochrome P450 2C9) | Ki (Cytochrome P450 2C9) | IC50 (Cytochrome P450 2D6) | Ki (Cytochrome P450 2D6) | IC50 (Estrogen receptor)

CN(N=O)C(=O)N[C@@H](C=O)[C@@H](O)[C@H](O)[C@H](O)CO [STREPTOZOCIN]
Not Active: IC50 [1] | IC50 [2] | IC50 (Cytochrome P450 1A2) | Ki (Cytochrome P450 1A2) | IC50 (Cytochrome P450 2C19) | Ki (Cytochrome P450 2C19) | IC50 (Cytochrome P450 2C9) | Ki (Cytochrome P450 2C9) | IC50 (Cytochrome P450 2D6) | Ki (Cytochrome P450 2D6) | IC50 (Estrogen receptor)
